# Earlier results, collected in paper PMC13603578, “Biopriming with Schizophyllum commune Polysaccharides Modulates Antioxidant and Biochemical Responses in Pisum sativum L. Seedlings” (Antioxidants, 2026).
# Parameters: method as in PMID 26205049
# Conditions: under the tested conditions
substance,measurement,value
liquiritigenin,DPPH radical-scavenging inhibition,exceeding 65%
